According to EP0183129A1, “Quinolonecarboxylic acid derivatives” (KYORIN PHARMACEUTICAL CO., LTD., priority 1984, dated 1986):
In brackets after ≈: the same amount, converted by molar mass.

Tests used:
S. pneumoniae 2054 = assay: In vitro antibacterial activity, MIC (clinical isolates); format: cell-based; settings: Streptococcus pneumoniae, 2054
[1] = test system: Serratia marcescens IID 618; assay: In vitro antibacterial activity, MIC (standard strain); format: cell-based; settings: Serratia marcescens, IID618
S. agalactiae 4049 = assay: In vitro antibacterial activity, MIC (clinical isolates); format: cell-based; settings: Streptococcus agalactiae, 4049
S. agalactiae 4342 = assay: as above; format: cell-based; settings: Streptococcus agalactiae, 4342
P. aeruginosa IID 1210 = assay: In vitro antibacterial activity, MIC (standard strain); format: cell-based; settings: Pseudomonas aeruginosa, IID1210
[2] = test system: Salmonella entritidis IID 604; assay: as above; format: cell-based; settings: Salmonella, IID604
S. pneumoniae 2950 = assay: In vitro antibacterial activity, MIC (clinical isolates); format: cell-based; settings: Streptococcus pneumoniae, 2950
[3] = test system: Escherichia coli NIHJ JC-2; assay: In vitro antibacterial activity, MIC (standard strain); format: cell-based; settings: Escherichia coli, NIHJJC2
[4] = test system: Staphylococcus aureus 209 P; assay: as above; format: cell-based; settings: Staphylococcus aureus, 209P
S. pyogenes 4372 = assay: In vitro antibacterial activity, MIC (clinical isolates); format: cell-based; settings: Streptococcus pyogenes, 4372
S. faecalis IID 682 = assay: In vitro antibacterial activity, MIC (standard strain); format: cell-based; settings: Enterococcus faecalis, IID682
S. pyogenes 4340 = assay: In vitro antibacterial activity, MIC (clinical isolates); format: cell-based; settings: Streptococcus pyogenes, 4340
[5] = test system: Bacteroides fragilis GM 7000; assay: In vitro antibacterial activity, MIC (standard strain); format: cell-based; settings: Bacteroides fragilis, GM7000
E. coli ATCC 10536 = assay: as above; format: cell-based; settings: Escherichia coli, ATCC10536
S. agalactiae 4368 = assay: In vitro antibacterial activity, MIC (clinical isolates); format: cell-based; settings: Streptococcus agalactiae, 4368
S. aureus Smith = assay: In vitro antibacterial activity, MIC (standard strain); format: cell-based, Staphylococcus aureus; settings: Staphylococcus aureus; S. aureus Smith; 10^6 cells/ml; standard strain
[6] = test system: Streptococcus pyogenes S-8; assay: as above; format: cell-based; settings: Streptococcus pyogenes, S8
B. fragilis 25285 = assay: as above; format: cell-based, Bacteroides fragilis; settings: Bacteroides fragilis, 25285
S. marcescens GN 7577 = assay: as above; format: cell-based; settings: Serratia marcescens, GN7577
S. faecalis 402 = assay: In vitro antibacterial activity, MIC (clinical isolates); format: cell-based; settings: Enterococcus faecalis, 402
[7] = test system: Acinetobacter anitratus IID 876; assay: In vitro antibacterial activity, MIC (standard strain); format: cell-based; settings: Acinetobacter calcoaceticus, IID876
S. faecalis 401 = assay: In vitro antibacterial activity, MIC (clinical isolates); format: cell-based; settings: Enterococcus faecalis, 401
S. pyogenes IID 692 = assay: In vitro antibacterial activity, MIC (standard strain); format: cell-based; settings: Streptococcus pyogenes, IID692
S. pneumoniae IID 552 = assay: as above; format: cell-based; settings: Streptococcus pneumoniae, IID552
[8] = test system: S. aureus IID 670 (Terajima); assay: as above; format: cell-based, Staphylococcus aureus; settings: Staphylococcus aureus, IID670
S. pneumoniae 3227 = assay: In vitro antibacterial activity, MIC (clinical isolates); format: cell-based; settings: Streptococcus pneumoniae, 3227
[9] = test system: Fusobacterium varium KYA 8501; assay: In vitro antibacterial activity, MIC (standard strain); format: cell-based; settings: Fusobacterium varium, KYA8501
S. pyogenes 3130 = assay: In vitro antibacterial activity, MIC (clinical isolates); format: cell-based; settings: Streptococcus pyogenes
[10] = test system: Bacillus subtilis PCI 219; assay: In vitro antibacterial activity, MIC (standard strain); format: cell-based; settings: Bacillus subtilis, PCI219
S. agalactiae 4470 = assay: In vitro antibacterial activity, MIC (clinical isolates); format: cell-based; settings: Streptococcus agalactiae, 4470
[11] = test system: Clostridium perfringens KYA 13123; assay: microbe, parasite or virus in culture; format: cell-based; settings: KYA13123
[12] = test system: Proteus vulgaris IFO 3167; assay: In vitro antibacterial activity, MIC (standard strain); format: cell-based; settings: Proteus vulgaris, IFO3167
K. pneumoniae 1-220S = assay: as above; format: cell-based; settings: Klebsiella pneumoniae, 1220S
C. ramosum = assay: as above; format: cell-based; settings: Thomasclavelia ramosa
S. agalactiae 4394 = assay: In vitro antibacterial activity, MIC (clinical isolates); format: cell-based; settings: Streptococcus agalactiae, 4394
S. agalactiae 4468 = assay: as above; format: cell-based; settings: Streptococcus agalactiae, 4468
[13] = test system: Pseudomonas aeruginosa V-1; assay: In vitro antibacterial activity, MIC (standard strain); format: cell-based; settings: Pseudomonas aeruginosa, V1
S. pyogenes 3102 = assay: In vitro antibacterial activity, MIC (clinical isolates); format: cell-based; settings: Streptococcus pyogenes, 3102
[14] = test system: Citrobacter freundii IID 976; assay: In vitro antibacterial activity, MIC (standard strain); format: cell-based; settings: Citrobacter freundii, IID976
[15] = test system: Klebsiella pneumoniae KY(GN)6445; assay: as above; format: cell-based; settings: Klebsiella pneumoniae
B. fragilis 0558 = assay: as above; format: cell-based, Bacteroides fragilis; settings: Bacteroides fragilis, 0558
[16] = test system: Morganella morganii IID 602; assay: as above; format: cell-based; settings: Morganella morganii, IID602
S. pneumoniae 15 = assay: In vitro antibacterial activity, MIC (clinical isolates); format: cell-based; settings: Streptococcus pneumoniae, 15
E. coli ML 4707 = assay: In vitro antibacterial activity, MIC (standard strain); format: cell-based; settings: Escherichia coli, ML4707
S. faecalis 214 = assay: In vitro antibacterial activity, MIC (clinical isolates); format: cell-based; settings: Enterococcus faecalis, 214
[17] = test system: Enterobacter cloacae IID 977; assay: In vitro antibacterial activity, MIC (standard strain); format: cell-based; settings: Enterobacter cloacae, IID977
P. aeruginosa IFO 12689 = assay: as above; format: cell-based, Pseudomonas aeruginosa; settings: Pseudomonas aeruginosa, IFO12689
S. pyogenes 3107 = assay: In vitro antibacterial activity, MIC (clinical isolates); format: cell-based; settings: Streptococcus pyogenes, 3107
[18] = test system: Alcaligenes faecalis 0104002; assay: In vitro antibacterial activity, MIC (standard strain); format: cell-based; settings: Alcaligenes faecalis, 0104002
S. epidermidis IID 866 = assay: as above; format: cell-based; settings: Staphylococcus epidermidis, IID866
S. faecalis 49 = assay: In vitro antibacterial activity, MIC (clinical isolates); format: cell-based; settings: Enterococcus faecalis, 49
P. mirabilis IID 994 = assay: In vitro antibacterial activity, MIC (standard strain); format: cell-based; settings: Proteus mirabilis, IID994
[19] = test system: Yersinia enterocolitica IID 981; assay: as above; format: cell-based; settings: Yersinia enterocolitica, IID981
Shigella sonnei IID 969 = assay: as above; format: cell-based; settings: IID969, 10^6 cells/ml
Protocol: Experiment-1 In vitro antibacterial activity
The in vitro antibacterial activity against gram-positive and gram-negative bacteria has been investivated.
The minimum inhibitory concentration (MIC) was determined in accordance with the method recommended by Japan Society of Chemotherapy.

M. pneumoniae Mac. = assay: In vitro antibacterial activity against Mycoplasma, MIC; format: cell-based; settings: Mycoplasmoides pneumoniae, 120 h
From the text: Experiment-3 In vitro antibacterial activity against Mycoplasma

## NCC1CCN(c2cc3c(cc2F)c(=O)c(C(=O)O)cn3C2CC2)C1 (stereo not drawn) [Example 6, 7-(3-Aminomethyl-l-pyrrolidinyl)-l-cyclopropyl-6-fluoro-l,4-dihydro-4-oxo-3-quinolinecarboxylic acid]
S. pneumoniae 2054
  MIC: 0.39 µg/mL (≈ 1.13 µM)
[1]
  MIC: 0.39 µg/mL (≈ 1.13 µM)
S. agalactiae 4049
  MIC: 0.39 µg/mL (≈ 1.13 µM)
S. agalactiae 4342
  MIC: 0.2 µg/mL (≈ 0.579 µM)
P. aeruginosa IID 1210
  MIC: 3.13 µg/mL (≈ 9.06 µM)
[2]
  MIC: 0.2 µg/mL (≈ 0.579 µM)
S. pneumoniae 2950
  MIC: 0.2 µg/mL (≈ 0.579 µM)
[3]
  MIC: 0.05 µg/mL (≈ 0.145 µM)
[4]
  MIC: 0.05 µg/mL (≈ 0.145 µM)
S. pyogenes 4372
  MIC: 0.1 µg/mL (≈ 0.29 µM)
S. faecalis IID 682
  MIC: 0.39 µg/mL (≈ 1.13 µM)
S. pyogenes 4340
  MIC: 0.05 µg/mL (≈ 0.145 µM)
[5]
  MIC: 6.25 µg/mL (≈ 18.1 µM)
E. coli ATCC 10536
  MIC: 0.05 µg/mL (≈ 0.145 µM)
S. agalactiae 4368
  MIC: 0.2 µg/mL (≈ 0.579 µM)
S. aureus Smith
  MIC: 0.2 µg/mL (≈ 0.579 µM)
[6]
  MIC: 0.1 µg/mL (≈ 0.29 µM)
B. fragilis 25285
  MIC: 12.5 µg/mL (≈ 36.2 µM)
S. marcescens GN 7577
  MIC: 3.13 µg/mL (≈ 9.06 µM)
S. faecalis 402
  MIC: 0.39 µg/mL (≈ 1.13 µM)
[7]
  MIC: 0.78 µg/mL (≈ 2.26 µM)
S. faecalis 401
  MIC: 0.39 µg/mL (≈ 1.13 µM)
S. pyogenes IID 692
  MIC: 0.2 µg/mL (≈ 0.579 µM)
S. pneumoniae IID 552
  MIC: 0.1 µg/mL (≈ 0.29 µM)
[8]
  MIC: 0.05 µg/mL (≈ 0.145 µM)
S. pneumoniae 3227
  MIC: 0.2 µg/mL (≈ 0.579 µM)
[9]
  MIC: 25 µg/mL (≈ 72.4 µM)
S. pyogenes 3130
  MIC: 0.05 µg/mL (≈ 0.145 µM)
[10]
  MIC: 0.05 µg/mL (≈ 0.145 µM)
S. agalactiae 4470
  MIC: 0.2 µg/mL (≈ 0.579 µM)
[11]
  MIC: 3.13 µg/mL (≈ 9.06 µM)
[12]
  MIC: 0.05 µg/mL (≈ 0.145 µM)
K. pneumoniae 1-220S
  MIC: 0.2 µg/mL (≈ 0.579 µM)
C. ramosum
  MIC: 12.5 µg/mL (≈ 36.2 µM)
S. agalactiae 4394
  MIC: 0.39 µg/mL (≈ 1.13 µM)
S. agalactiae 4468
  MIC: 0.2 µg/mL (≈ 0.579 µM)
[13]
  MIC: 0.78 µg/mL (≈ 2.26 µM)
S. pyogenes 3102
  MIC: 0.05 µg/mL (≈ 0.145 µM)
[14]
  MIC: 0.1 µg/mL (≈ 0.29 µM)
[15]
  MIC: 0.1 µg/mL (≈ 0.29 µM)
B. fragilis 0558
  MIC: 6.25 µg/mL (≈ 18.1 µM)
[16]
  MIC: 0.39 µg/mL (≈ 1.13 µM)
S. pneumoniae 15
  MIC: 0.2 µg/mL (≈ 0.579 µM)
E. coli ML 4707
  MIC: 0.05 µg/mL (≈ 0.145 µM)
S. faecalis 214
  MIC: 0.39 µg/mL (≈ 1.13 µM)
[17]
  MIC: 0.2 µg/mL (≈ 0.579 µM)
P. aeruginosa IFO 12689
  MIC: 0.78 µg/mL (≈ 2.26 µM)
S. pyogenes 3107
  MIC: 0.05 µg/mL (≈ 0.145 µM)
[18]
  MIC: 1.56 µg/mL (≈ 4.52 µM)
S. epidermidis IID 866
  MIC: 0.05 µg/mL (≈ 0.145 µM)
S. faecalis 49
  MIC: 0.39 µg/mL (≈ 1.13 µM)
P. mirabilis IID 994
  MIC: 0.1 µg/mL (≈ 0.29 µM)
[19]
  MIC: 0.2 µg/mL (≈ 0.579 µM)
Shigella sonnei IID 969
  MIC: 0.05 µg/mL (≈ 0.145 µM)

## CN(C)[C@@H]1C(O)=C(C(N)=O)C(=O)[C@@]2(O)C(O)=C3C(=O)c4c(O)cccc4[C@@](C)(O)[C@H]3C[C@@H]12 [TC, Tetracycline, reference compound]
M. pneumoniae Mac.
  MIC: 0.78 µg/mL (≈ 1.76 µM)
